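1) Cells in 96-well plates. 2) Compound, 48 h, 5 concentrations. 3) Linear interpolation between surrounding doses. 4) Unreached endpoint = highest concentration. Abbreviation: GI50, concentration required for 50% inhibition of growth. The concentration for full growth arrest is given as TGI.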
What was measured:
Test in all cases: growth of human tumour cells (NCI), 48 h
NCI-H23 lung = tested on: NCI-H23 lung
NCI-H460 lung = tested on: NCI-H460 lung
NCI-H522 lung = tested on: NCI-H522 lung
NCI/ADR-RES ovarian = tested on: NCI/ADR-RES ovarian
OVCAR-3 ovarian = tested on: OVCAR-3 ovarian
OVCAR-4 ovarian = tested on: OVCAR-4 ovarian
OVCAR-5 ovarian = tested on: OVCAR-5 ovarian
OVCAR-8 ovarian = tested on: OVCAR-8 ovarian
PC-3 prostate = tested on: PC-3 prostate
RPMI-8226 leukemia = tested on: RPMI-8226 leukemia
RXF 393 renal = tested on: RXF 393 renal
SF-268 CNS = tested on: SF-268 CNS
SF-295 CNS = tested on: SF-295 CNS
SF-539 CNS = tested on: SF-539 CNS
SK-MEL-2 melanoma = tested on: SK-MEL-2 melanoma
SK-MEL-28 melanoma = tested on: SK-MEL-28 melanoma
SK-MEL-5 melanoma = tested on: SK-MEL-5 melanoma
SK-OV-3 ovarian = tested on: SK-OV-3 ovarian
SN12C renal = tested on: SN12C renal
SNB-19 CNS = tested on: SNB-19 CNS
SNB-75 CNS = tested on: SNB-75 CNS
SR leukemia = tested on: SR leukemia
SW-620 colon = tested on: SW-620 colon
T-47D breast = tested on: T-47D breast
TK-10 renal = tested on: TK-10 renal
U251 CNS = tested on: U251 CNS
UACC-257 melanoma = tested on: UACC-257 melanoma
UACC-62 melanoma = tested on: UACC-62 melanoma
UO-31 renal = tested on: UO-31 renal

SMILES: O=[N+]([O-])c1ccc(-c2nc(-c3ccccc3)c(-c3ccccc3)n2-c2ccccc2)cc1
- GI50 (NCI-H23 lung): 2620 nM
- TGI (NCI-H23 lung): 11.3 µM
- GI50 (NCI-H460 lung): 2430 nM
- TGI (NCI-H460 lung): 7.06 µM
- GI50 (NCI-H522 lung): 3.05 µM
- TGI (NCI-H522 lung): > 28.4 µM
- GI50 (NCI/ADR-RES ovarian): 2680 nM
- TGI (NCI/ADR-RES ovarian): 7.88 µM
- GI50 (OVCAR-3 ovarian): 2430 nM
- TGI (OVCAR-3 ovarian): 6.67 µM
- GI50 (OVCAR-4 ovarian): 2940 nM
- TGI (OVCAR-4 ovarian): 14.9 µM
- GI50 (OVCAR-5 ovarian): 4.7 µM
- TGI (OVCAR-5 ovarian): 28.7 µM
- GI50 (OVCAR-8 ovarian): 3.19 µM
- TGI (OVCAR-8 ovarian): > 100 µM
- GI50 (PC-3 prostate): 2740 nM
- TGI (PC-3 prostate): > 31.1 µM
- GI50 (RPMI-8226 leukemia): 1530 nM
- TGI (RPMI-8226 leukemia): 5.43 µM
- GI50 (RXF 393 renal): 3.08 µM
- TGI (RXF 393 renal): 9.78 µM
- GI50 (SF-268 CNS): 3.7 µM
- TGI (SF-268 CNS): 17.6 µM
- GI50 (SF-295 CNS): 2680 nM
- TGI (SF-295 CNS): 8.25 µM
- GI50 (SF-539 CNS): 2020 nM
- TGI (SF-539 CNS): 4.78 µM
- GI50 (SK-MEL-2 melanoma): 3.04 µM
- TGI (SK-MEL-2 melanoma): 8.6 µM
- GI50 (SK-MEL-28 melanoma): 2990 nM
- TGI (SK-MEL-28 melanoma): 9.97 µM
- GI50 (SK-MEL-5 melanoma): 1800 nM
- TGI (SK-MEL-5 melanoma): 3.81 µM
- GI50 (SK-OV-3 ovarian): 2030 nM
- TGI (SK-OV-3 ovarian): 9.21 µM
- GI50 (SN12C renal): 2690 nM
- TGI (SN12C renal): 12.4 µM
- GI50 (SNB-19 CNS): 3.75 µM
- TGI (SNB-19 CNS): > 48.8 µM
- GI50 (SNB-75 CNS): 2640 nM
- TGI (SNB-75 CNS): 22 µM
- GI50 (SR leukemia): 6.2 µM
- TGI (SR leukemia): > 100 µM
- GI50 (SW-620 colon): 2600 nM
- TGI (SW-620 colon): 9.28 µM
- GI50 (T-47D breast): 2190 nM
- TGI (T-47D breast): 7.29 µM
- GI50 (TK-10 renal): 4.01 µM
- TGI (TK-10 renal): 16.9 µM
- GI50 (U251 CNS): 2740 nM
- TGI (U251 CNS): 10.7 µM
- GI50 (UACC-257 melanoma): 2390 nM
- TGI (UACC-257 melanoma): 5.87 µM
- GI50 (UACC-62 melanoma): 2180 nM
- TGI (UACC-62 melanoma): 8.53 µM
- GI50 (UO-31 renal): 1990 nM
- TGI (UO-31 renal): 6.67 µM
